What was measured:
hVps34 (PIK3C3) = biological target: T1, hVps34 (PIK3C3) (Homo sapiens, UniProt Q8NEB9); experiment: lipid kinase assay (ADP-Glo), PI3K-C3; type: biochemical; conditions: Table 2; mean of at least three determinations, 95 % confidence intervals; read-out: IC50 PI3Kc3
T1 construct: purchased ProQinase, Germany 1160‐0000‐1
Protocol: In vitro selection, lipid kinase assay: To determine the inhibitory activity of the new molecular entities on PI3K enzyme, a lipid kinase assay was performed: recombinant proteins (30 ng), human PI3Kα (PIK3CA/PIK3R1, #1161‐1165‐1 ProQinase–Germany), hPI3Kβ (PIK3CB wt/PIK3R1, #1168‐1165‐1 ProQinase, Germany), hPI3Kγ (PIK3CG, #1163‐0000‐1 ProQinase, Germany), hPI3Kδ (PIK3CD/PIK3R1, #1162–1165‐1 ProQinase, Germany), hPI3K‐C2α (PIK3C2A, #14‐906 Merck Millipore_Merck KGaA, Germany), hPI3K‐C2β (PIK3C2B, #14‐907 Merck Millipore_Merck KGaA, Germany), hPI3K‐c2γ (PIK3C2G, #1207‐0000‐1 ProQinase, Germany), and hVps34 (PIK3C3, #1160‐0000‐1 ProQinase, Germany), were incubated in kinase buffer {12.5 μL; 20 mM Tris‐HCl pH 7.5, 10 mM MgCl2, 10 μM ATP, 0.05 mg mL^−1 BSA, 0.5 mM EDTA, 5 mM HEPES pH 7.5, for PI3Kα,PI3Kβ, PI3Kγ, PI3Kδ, PI3KC‐2α, and PI3KC‐2γ; 15 mM MnCl2, 5 mM EGTA, 100 μM ATP, 50 mM HEPES pH 7.5, 100 mM NaCl, and 0.03 % CHAPS for PI3K‐C2β and VPS34 {BSA=bovine serum albumin; EDTA=ethylenediaminetetraacetic acid; HEPES=4‐(2‐hydroxyethyl)‐1‐piperazineethanesulfonic acid; EGTA=ethylene glycol‐bis(2‐aminoethylether)‐N,N,N′,N′‐tetraacetic acid; CHAPS=3‐[(3‐cholamidopropyl)dimethylammonio]‐1‐propanesulfonate}. In the reaction, the ATP concentration used for different PI3Ks was defined on the basis of the Michaelis–Menten kinetics of each enzyme, provided by the supplier. […]

PC3 cells = experiment: PC3 cell proliferation (MTT); type: cell-based; set-up: key to Cell proliferation: active: Active: able to reduce proliferation to an extent greater than 50 %; inactive: able to reduce proliferation to an extent less than 50 %
Protocol: The biological activity of each prodrug was tested by analyzing their ability to decrease PC3 proliferation as a rapid test to evaluate the PI3Ks inhibitory activity after hydrolysis in a cell‐based assay. […] The choice of using such a cut‐off was due to the intent to identify rapidly which prodrug could be hydrolyzed in the assay to release the active compound. As expected, a good correlation between rate of hydrolysis and cellular activity was observed, and esters 64–68 and 70–73 were determined to be good candidates for topical use. We decided to focus our attention on ester 64, as its half‐life was a good compromise for a prodrug. The EC50 value of this ester was then evaluated on PC3 cells, and a value of (2.3±0.8) μM was obtained.
Cell proliferation: PC3 cell proliferation was measured with a 3‐(4,5‐dimethyl thiazol‐2‐yl)‐2,5‐diphenyltetrazolium bromide (MTT)‐based colorimetric assay (#11 465 007 001 Roche Diagnostic GmbH, Germany). PC3 cells were seeded in a 96‐well plate at a concentration of 10^4 cells mL^−1. PC3 cells were treated for 72 h with increasing concentrations of 64, and MTT was added. After ON solubilization of the MTT metabolite, formazan, the absorbance (λ=550–600 nm absorbance, with a reference wavelength of 650 nm) of each well was read in a multi‐well reader (Glomax multi detection system, Promega, model number 9301‐010). The percentage of proliferating cells was calculated by relating each absolute value to the control intended as PC3 cells treated with DMSO alone. An IC50 value was then derived by plotting all data on a dose–response curve (Graph Pad software) by using nonlinear regression fit (equation [log agonist] versus response).

T1 sequence (Q8NEB9 whole entry): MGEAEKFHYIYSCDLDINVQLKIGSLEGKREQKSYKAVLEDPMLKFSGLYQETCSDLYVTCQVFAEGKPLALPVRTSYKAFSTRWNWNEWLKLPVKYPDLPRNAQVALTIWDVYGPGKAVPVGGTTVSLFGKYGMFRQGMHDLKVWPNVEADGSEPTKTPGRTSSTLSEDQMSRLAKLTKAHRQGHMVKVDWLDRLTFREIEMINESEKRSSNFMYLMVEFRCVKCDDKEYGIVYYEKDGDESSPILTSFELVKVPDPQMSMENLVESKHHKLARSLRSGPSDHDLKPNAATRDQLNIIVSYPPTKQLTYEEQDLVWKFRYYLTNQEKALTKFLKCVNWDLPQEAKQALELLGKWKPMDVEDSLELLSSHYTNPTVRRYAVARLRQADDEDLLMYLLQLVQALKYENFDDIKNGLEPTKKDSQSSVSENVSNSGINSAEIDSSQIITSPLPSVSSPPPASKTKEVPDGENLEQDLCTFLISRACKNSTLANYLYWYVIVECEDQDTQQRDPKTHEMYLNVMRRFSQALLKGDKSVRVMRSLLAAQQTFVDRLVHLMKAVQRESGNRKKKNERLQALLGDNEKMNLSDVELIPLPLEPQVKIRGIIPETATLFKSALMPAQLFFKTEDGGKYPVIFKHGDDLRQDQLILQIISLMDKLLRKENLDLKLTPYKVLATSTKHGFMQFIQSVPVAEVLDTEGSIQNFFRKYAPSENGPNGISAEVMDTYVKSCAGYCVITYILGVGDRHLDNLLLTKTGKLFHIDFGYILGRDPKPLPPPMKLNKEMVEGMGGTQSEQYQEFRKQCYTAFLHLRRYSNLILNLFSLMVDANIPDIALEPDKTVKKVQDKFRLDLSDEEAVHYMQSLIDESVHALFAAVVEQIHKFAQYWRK

EC50 (PC3 cells; Homo sapiens, PC-3, PC3 proliferation, MTT, 72 h)	Structure (SMILES)	IC50 (hVps34 (PIK3C3))	effect on proliferation of PC3 cells (PC3 cells; 72 h of treatment)	Cell proliferation (PC3 cells; PC3 cells, 10 μM of each prodrug)
–	O=C(O)c1cccc(Cn2cc(-c3cccc4c(=O)cc(N5CCOCC5)[nH]c34)nn2)c1 [Compound 37, 3‐{[4‐(2‐Morpholino‐4‐oxo‐1,4‐dihydroquinolin‐8‐yl)‐1H‐1,2,3‐triazol‐1‐yl]methyl}benzoic acid]	590 ± 200 nM	–	–
2300 ± 800 nM	COC(=O)c1cccc(Cn2cc(-c3cccc4c(=O)cc(N5CCOCC5)[nH]c34)nn2)c1 [Compound 64, Methyl 3‐{[4‐(2‐morpholino‐4‐oxo‐1,4‐dihydroquinolin‐8‐yl)‐1H‐1,2,3‐triazol‐1‐yl]methyl}benzoate]	–	dose‐dependently decreased proliferation	active

Reference: PMC5697638, “Identification of a Potent Phosphoinositide 3‐Kinase Pan Inhibitor Displaying a Strategic Carboxylic Acid Group and Development of Its Prodrugs” (Chemmedchem, 2017)
